Data from ChEMBL document CHEMBL1138423, “TOMOCOMD-CARDD descriptors-based virtual screening of tyrosinase inhibitors: evaluation of different classification model combinations using bond-based linear indices” (Bioorg Med Chem, 2007).

Biological target: T1, Tyrosinase (Agaricus bisporus, UniProt O42713)
T1 sequence (O42713 whole entry): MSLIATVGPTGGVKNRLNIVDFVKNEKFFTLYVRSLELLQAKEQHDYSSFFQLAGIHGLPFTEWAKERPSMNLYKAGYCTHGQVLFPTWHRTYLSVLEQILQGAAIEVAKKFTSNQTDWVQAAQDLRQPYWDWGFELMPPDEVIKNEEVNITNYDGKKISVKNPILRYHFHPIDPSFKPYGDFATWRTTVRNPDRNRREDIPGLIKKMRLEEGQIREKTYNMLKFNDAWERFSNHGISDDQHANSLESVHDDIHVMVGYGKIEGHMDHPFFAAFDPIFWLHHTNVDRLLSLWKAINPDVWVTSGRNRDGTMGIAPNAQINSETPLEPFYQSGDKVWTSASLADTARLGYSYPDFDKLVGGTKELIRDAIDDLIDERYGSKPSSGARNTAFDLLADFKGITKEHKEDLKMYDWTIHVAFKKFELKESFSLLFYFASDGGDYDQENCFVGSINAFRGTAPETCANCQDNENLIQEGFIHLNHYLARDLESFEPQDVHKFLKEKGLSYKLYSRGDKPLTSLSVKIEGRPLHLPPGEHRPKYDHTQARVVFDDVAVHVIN
Assay: Inhibition of mushroom tyrosinase after 10 mins

Structure (SMILES) | IC50
C#CC1(O)CC[C@H]2[C@@H]3CCC4=CC(=O)C=C[C@]4(C)[C@H]3CC[C@@]21C (single isomer, unassigned) | 7.89 µM
C#CC1(O)CC[C@H]2[C@@H]3CCC4=CC(=O)CC[C@]4(C)[C@H]3[C@H](O)C[C@@]21C (single isomer, unassigned) | 5.95 µM
CC[C@]1(O)CC[C@H]2[C@@H]3CCC4=CC(=O)CC[C@]4(C)[C@H]3[C@H](O)C[C@@]21C | 1.72 µM
CC[C@]1(O)CC[C@H]2[C@@H]3CCC4=CC(=O)C=C[C@]4(C)[C@H]3CC[C@@]21C | 3.46 µM
CC[C@]1(O)CC[C@H]2[C@@H]3CCC4=CC(=O)CC[C@]4(C)[C@H]3CC[C@@]21C | 1.53 µM
C#CC1(O)CC[C@H]2[C@@H]3CCC4=CC(=O)CC[C@]4(C)[C@H]3CC[C@@]21C (single isomer, unassigned) [ETHISTERONE] | 2.61 µM
